Reference: patent publication EP2098223A1, “Compressed solid dosage form” (Teva Pharmaceutical Industries Ltd., priority 2004, dated 2006)
Counter-ions that a name gives are not always drawn.

Assay: Particle size distribution by laser light scattering (Malvern Mastersizer S)
Format: physicochemical
Conditions: mean equivalent spherical diameter; raloxifene hydrochloride used in Formulations 1-4
Source text: For example, in Formulations 1-4 below, d(0.5) = 38.8 µm and d(0.9) = 90.4 µm. All particle sizes herein refer to the mean equivalent spherical diameter measured by laser light scattering techniques. Thus, the notation "d(0.5) greater than about 35 µm" means that 50% of the particles by volume have a mean equivalent spherical diameter of more than about 35 µm, as measured by laser light scattering. The laser light scattering measurement instrument used to measure the particle size distributions in the Examples was a Malvern Mastersizer® S. The dissolution profile was generated by testing in either 900 mL or 2 L of a 0.1 % aqueous polysorbate 80 solution, using paddle apparatus (USP Apparatus II) at 50 rpm at 37°C.

With `O=C(c1ccc(OCCN2CCCCC2)cc1)c1c(-c2ccc(O)cc2)sc2cc(O)ccc12` [raloxifene hydrochloride] the “d(0.5)” value was 38.8 µm and the “d(0.9)” value was 90.4 µm.
